The test concerns the target T1, delF508-CFTR (Homo sapiens, UniProt P13569, DEL508-508).
T1 construct: expressed in transfected cells
The experiment in a line: Measurement of delF508-CFTR-HRP surface expression in CFBE41o- cells. In kind it is cell-based. Particulars: for pEC50: HRP-tagged delF508-CFTR in CFBE41o- cells, 24 h with compound, luminescence, 10-point curve, top 10 μM; for Emax: efficacy relative to reference compound 3-(6-(1-(2,2-difluorobenzo[d][1,3]dioxol-5-yl)cyclopropane-1-carboxamido)-3-methylpyridin-2-yl)benzoic acid, CFBE41o- cells, 24 h, read-out: DelF508-CFTR-HRP Amax %. The gist of the method: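 CFBE41o- cells stably expressing delF508-CFTR with HRP in the fourth extracellular loop, induced with 500 ng/mL doxycycline for 48 h, then treated with compound (top 10 μM, 10-point 3-fold) for 24 h at 37° C. Surface HRP detected by luminescence with cell-impermeant substrate; EC50 from logistic fit of triplicates, normalized to lowest concentration.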

pEC50: −log10 of the molar value.

T1 sequence (P13569 with tags, fused parts or gaps DEL508-508): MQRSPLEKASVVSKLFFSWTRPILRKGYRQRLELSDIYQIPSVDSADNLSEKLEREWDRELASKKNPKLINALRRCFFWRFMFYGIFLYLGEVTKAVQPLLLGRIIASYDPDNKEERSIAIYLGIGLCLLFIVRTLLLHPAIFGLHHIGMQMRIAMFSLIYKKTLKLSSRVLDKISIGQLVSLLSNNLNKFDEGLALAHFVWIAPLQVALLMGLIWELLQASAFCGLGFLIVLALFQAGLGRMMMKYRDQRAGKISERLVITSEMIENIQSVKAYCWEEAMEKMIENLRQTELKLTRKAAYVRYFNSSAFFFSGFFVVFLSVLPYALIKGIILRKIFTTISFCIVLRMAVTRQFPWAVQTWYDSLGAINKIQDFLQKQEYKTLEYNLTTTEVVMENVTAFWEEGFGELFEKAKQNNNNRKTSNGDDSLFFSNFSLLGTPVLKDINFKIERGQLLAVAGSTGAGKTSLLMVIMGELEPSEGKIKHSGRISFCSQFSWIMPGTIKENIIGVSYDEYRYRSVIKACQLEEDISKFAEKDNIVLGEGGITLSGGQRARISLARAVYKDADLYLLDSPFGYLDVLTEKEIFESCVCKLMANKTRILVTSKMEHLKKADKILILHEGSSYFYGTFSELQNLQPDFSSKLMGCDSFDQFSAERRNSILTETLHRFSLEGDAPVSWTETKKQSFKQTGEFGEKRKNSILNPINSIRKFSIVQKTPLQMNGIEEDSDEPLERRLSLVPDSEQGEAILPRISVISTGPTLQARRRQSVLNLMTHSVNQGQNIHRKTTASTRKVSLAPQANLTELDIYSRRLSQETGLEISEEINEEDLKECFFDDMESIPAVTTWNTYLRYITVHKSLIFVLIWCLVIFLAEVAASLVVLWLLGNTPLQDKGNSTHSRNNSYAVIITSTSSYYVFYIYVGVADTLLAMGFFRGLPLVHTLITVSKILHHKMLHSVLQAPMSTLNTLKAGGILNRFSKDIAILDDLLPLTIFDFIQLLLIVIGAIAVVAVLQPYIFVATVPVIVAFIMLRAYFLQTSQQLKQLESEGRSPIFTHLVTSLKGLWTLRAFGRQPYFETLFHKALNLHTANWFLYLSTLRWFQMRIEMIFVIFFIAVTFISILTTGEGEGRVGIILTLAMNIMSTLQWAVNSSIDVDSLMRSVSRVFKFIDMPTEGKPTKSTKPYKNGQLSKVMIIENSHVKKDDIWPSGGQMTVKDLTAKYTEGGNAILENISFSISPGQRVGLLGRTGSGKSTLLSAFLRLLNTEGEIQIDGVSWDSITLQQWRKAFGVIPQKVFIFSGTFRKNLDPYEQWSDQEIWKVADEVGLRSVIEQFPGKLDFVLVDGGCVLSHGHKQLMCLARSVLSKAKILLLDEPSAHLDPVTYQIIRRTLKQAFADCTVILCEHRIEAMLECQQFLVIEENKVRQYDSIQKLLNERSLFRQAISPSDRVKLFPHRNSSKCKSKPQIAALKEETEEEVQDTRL

`Cc1ccccc1-c1nc(NS(=O)(=O)c2cccc(N3CCC(O)(C(C)(C)C(=O)O)CC3)n2)ccc1C(F)(F)F` [Compound 9, 2-(4-hydroxy-1-(6-(N-(6-(o-tolyl)-5-(trifluoromethyl)pyridin-2-yl)sulfamoyl)pyridin-2-yl)piperidin-4-yl)-2-methylpropanoic Acid]: the pEC50 was 5.69 and the Emax was 102%.
Turning to `Cc1ccccc1-c1nc(NS(=O)(=O)c2cccc(N3CCCC(CC(=O)O)C3)n2)ccc1C(F)(F)F` (centres unmarked) [Compound 88, 2-(1-(6-(N-(6-(o-tolyl)-5-(trifluoromethyl)pyridin-2-yl)sulfamoyl)pyridin-2-yl)piperidin-3-yl)acetic Acid], the pEC50 was 5.69.
Consider `Cc1ccccc1-c1nc(NS(=O)(=O)c2cccc(N(CCC(=O)O)C(C)C)n2)ccc1C(F)(F)F` [Compound 91, 3-(isopropyl(6-(N-(6-(o-tolyl)-5-(trifluoromethyl)pyridin-2-yl)sulfamoyl)pyridin-2-yl)amino)propanoic Acid], for which the pEC50 was 5.78.
Turning to `CCN(CCC(=O)O)c1cccc(S(=O)(=O)Nc2ccc(C(F)(F)F)c(-c3c(C)cccc3C)n2)n1` [Compound 145, 3-((6-(N-(6-(2,6-dimethylphenyl)-5-(trifluoromethyl)pyridin-2-yl)sulfamoyl)pyridin-2-yl)(ethyl)amino)propanoic Acid], the pEC50 was 5.74.
Consider `CCc1ccccc1-c1nc(NS(=O)(=O)c2cccc(N3CCCC(CCC(=O)O)C3)n2)ccc1C(F)(F)F` (centres unmarked) [Compound 82, 3-(1-(6-(N-(6-(2-ethylphenyl)-5-(trifluoromethyl)pyridin-2-yl)sulfamoyl)pyridin-2-yl)piperidin-3-yl)propanoic Acid], for which the pEC50 is 5.98.
In the case of `Cc1ccccc1-c1nc(NS(=O)(=O)c2cccc(N(CCC(=O)O)C3CCC3)n2)ccc1C(F)(F)F` [Compound 147, 3-(cyclobutyl(6-(N-(6-(o-tolyl)-5-(trifluoromethyl)pyridin-2-yl)sulfamoyl)pyridin-2-yl)amino)propanoic acid], the negative logarithm of the EC50 (pEC50) is 5.94 and the Emax worked out at 802%.
Taken in the same sequence, the figures for `CCc1ccccc1-c1nc(NS(=O)(=O)c2cccc(N3CCC(C)(CC(=O)O)CC3)n2)ccc1C(F)(F)F` [Compound 22, 2-(1-(6-(N-(6-(2-ethylphenyl)-5-(trifluoromethyl)pyridin-2-yl)sulfamoyl)pyridin-2-yl)-4-methylpiperidin-4-yl)acetic Acid] were 5.97 and 485%.
Regarding `COc1ccc(Cl)c(-c2nc(NS(=O)(=O)c3cccc(N4CCN(c5ccc(C(=O)O)cc5)CC4)n3)ccc2C(F)(F)F)c1` [Compound 21, 4-(4-(6-(N-(6-(2-chloro-5-methoxyphenyl)-5-(trifluoromethyl)pyridin-2-yl)sulfamoyl)pyridin-2-yl)piperazin-1-yl)benzoic Acid], the pEC50 was 5.53 and the Emax was determined as 361%.
Take `CCCCN(CCC(=O)O)c1cccc(S(=O)(=O)Nc2ccc(C(F)(F)F)c(-c3cc(F)ccc3C)n2)n1` [Compound 153, 3-(butyl(6-(N-(6-(5-fluoro-2-methylphenyl)-5-(trifluoromethyl)pyridin-2-yl)sulfamoyl)pyridin-2-yl)amino)propanoic Acid]: the pEC50 is 6.09 and the Emax was determined as 770%.
Take `CCN(CCC(=O)O)c1cccc(S(=O)(=O)Nc2ccc(C(F)(F)F)c(-c3cc(F)ccc3C)n2)n1` [Compound 61, 3-(ethyl(6-(N-(6-(5-fluoro-2-methylphenyl)-5-(trifluoromethyl)pyridin-2-yl)sulfamoyl)pyridin-2-yl)amino)propanoic Acid]: the pEC50 is 5.45 and the Emax is 736%.
Taken in the same sequence, the figures for `Cc1c(F)cccc1-c1nc(NS(=O)(=O)c2cccc(N3CCC(C)(CC(=O)O)CC3)n2)ccc1C(F)(F)F` [Compound 13, 2-(1-(6-(N-(6-(3-fluoro-2-methylphenyl)-5-(trifluoromethyl)pyridin-2-yl)sulfamoyl)pyridin-2-yl)-4-methylpiperidin-4-yl)acetic Acid] were 5.62 and 370%.
The corresponding values for `Cc1ccccc1-c1nc(NS(=O)(=O)c2cccc(N3CCC[C@@](C)(CC(=O)O)C3)n2)ccc1C(F)(F)F` (single isomer, unassigned) [Compound 122] are 5.79 and 785%.
In the case of `Cc1cccc(C)c1-c1nc(NS(=O)(=O)c2ccnc(NC(C)CC(=O)O)c2)ccc1Cl` (centres unmarked) [Compound 142, 3-((4-(N-(5-chloro-6-(2,6-dimethylphenyl)pyridin-2-yl)sulfamoyl)pyridin-2-yl)amino)butanoic Acid], the pEC50 was 5.35 and the Emax turned out to be 84%.
The corresponding values for `Cc1c(F)cccc1-c1nc(NS(=O)(=O)c2cccc(N(C)CC(C)(C)C(=O)O)n2)ccc1C(F)(F)F` [Compound 47, 3-((6-(N-(6-(3-fluoro-2-methylphenyl)-5-(trifluoromethyl)pyridin-2-yl)sulfamoyl)pyridin-2-yl)(methyl)amino)-2,2-dimethylpropanoic Acid] are 5.74 and 496%.
The corresponding values for `Cc1cccc(C)c1-c1nc(NS(=O)(=O)c2cccc(N3CCC[C@H]3c3nnn[nH]3)n2)ccc1Cl` [Compound 124, (S)-6-(2-(1H-tetrazol-5-yl)pyrrolidin-1-yl)-N-(5-chloro-6-(2,6-dimethylphenyl)pyridin-2-yl)pyridine-2-sulfonamide] are 5.76 and 297%.
On to `CC1(CC(=O)O)CCN(c2cccc(S(=O)(=O)Nc3ccc(C(F)(F)F)c(-c4ccccc4-c4ccccc4)n3)n2)CC1` [Compound 23, 2-(1-(6-(N-(6-([1,1′-biphenyl]-2-yl)-5-(trifluoromethyl)pyridin-2-yl)sulfamoyl)pyridin-2-yl)-4-methylpiperidin-4-yl)acetic acid], for which the pEC50 was 5.90.
On to `Cc1ccccc1-c1nc(NS(=O)(=O)c2cccc(N[C@@H]3[C@@H]4CC[C@@H](C4)[C@@H]3C(=O)O)n2)ccc1C(F)(F)F` (racemic) [109a 109b (racemic mixture)], for which the pEC50 was 5.63 and the Emax came to 700%.
Taken in the same sequence, the figures for `Cc1ccccc1-c1nc(NS(=O)(=O)c2cccc(NCC(C)(C)C(=O)O)n2)ccc1C(F)(F)F` [Compound 8, 2,2-dimethyl-3-((6-(N-(6-(o-tolyl)-5-(trifluoromethyl)pyridin-2-yl)sulfamoyl)pyridin-2-yl)amino)propanoic Acid] were 5.73 and 271%.
The corresponding values for `CC(C)c1ccccc1-c1nc(NS(=O)(=O)c2cccc(N3CCC(OCC(=O)O)CC3)n2)ccc1C(F)(F)F` [Compound 31, 2-((1-(6-(N-(6-(2-isopropylphenyl)-5-(trifluoromethyl)pyridin-2-yl)sulfamoyl)pyridin-2-yl)piperidin-4-yl)nxy)acetic Acid] are 5.67 and 443%.
In the case of `Cc1ccccc1-c1nc(NS(=O)(=O)c2cccc(NC3CCCC(C(=O)O)C3)n2)ccc1C(F)(F)F` (mixture of isomers) [Compound 105, 3-((6-(N-(6-(o-tolyl)-5-(trifluoromethyl)pyridin-2-yl)sulfamoyl)pyridin-2-yl)amino)cyclohexane-1-carboxylic Acid], the negative-log EC50 (pEC50) is 5.74 and the Emax is 361%.
Take `Cc1ccccc1-c1nc(NS(=O)(=O)c2cccc(NC(C(=O)O)C34CC5CC(CC(C5)C3)C4)n2)ccc1C(F)(F)F` (centres unmarked) [Compound 143, 2-(adamantan-1-yl)-2-((6-(N-(6-(o-tolyl)-5-(trifluoromethyl)pyridin-2-yl)sulfamoyl)pyridin-2-yl)amino)acetic Acid]: the pEC50 was 5.62.
With `O=C(O)CCNc1cccc(S(=O)(=O)Nc2ccc(C(F)(F)F)c(-c3ccccc3C3CC3)n2)n1` [Compound 39, 3-((6-(N-(6-(2-cyclopropylphenyl)-5-(trifluoromethyl)pyridin-2-yl)sulfamoyl)pyridin-2-yl)amino)propanoic Acid], the pEC50 was 5.49 and the Emax worked out at 257%.
For `Cc1ccccc1-c1nc(NS(=O)(=O)c2cccc(N(C)CC(C)(C)C(=O)O)n2)ccc1C(F)(F)F` [Compound 46, 2,2-dimethyl-3-(methyl(6-(N-(6-(o-tolyl)-5-(trifluoromethyl)pyridin-2-yl)sulfamoyl)pyridin-2-yl)amino)propanoic Acid], the pEC50 was 5.74 and the Emax stood at 493%.
The corresponding values for `Cc1ccccc1-c1nc(NS(=O)(=O)c2cccc(SCCC(=O)O)n2)ccc1C(F)(F)F` [Compound 117, 3-((6-(N-(6-(o-tolyl)-5-(trifluoromethyl)pyridin-2-yl)sulfamoyl)pyridin-2-yl)thio)propanoic Acid] are 5.61 and 196%.
On to `Cc1ccccc1-c1nc(NS(=O)(=O)c2cccc(N3CCCC(C)(CC(=O)O)C3)n2)ccc1C(F)(F)F` (centres unmarked) [Compound 51, 2-(3-methyl-1-(6-(N-(6-(o-tolyl)-5-(trifluoromethyl)pyridin-2-yl)sulfamoyl)pyridin-2-yl)piperidin-3-yl)acetic Acid], for which the pEC50 was 5.80.
Regarding `Cc1ccccc1-c1nc(NS(=O)(=O)c2cccc(N3CCC(CCC(=O)O)CC3)n2)ccc1C(F)(F)F` [Compound 79, 3-(1-(6-(N-(6-(o-tolyl)-5-(trifluoromethyl)pyridin-2-yl)sulfamoyl)pyridin-2-yl)piperidin-4-yl)propanoic Acid], the pEC50 was 5.54 and the Emax turned out to be 330%.
Taken in the same sequence, the figures for `O=C(O)CC1CCN(c2cccc(S(=O)(=O)Nc3ccc(C(F)(F)F)c(-c4ccccc4C4CC4)n3)n2)C1` (centres unmarked) [Compound 33, 2-(1-(6-(N-(6-(2-cyclopropylphenyl)-5-(trifluoromethyl)pyridin-2-yl)sulfamoyl)pyridin-2-yl)pyrrolidin-3-yl)acetic Acid] were 5.89 and 320%.

The values above are taken from patent publication US20220127247A1, “N-(PYRIDIN-2-YL)PYRIDINE-SULFONAMIDE DERIVATIVES AND THEIR USE IN THE TREATMENT OF DISEASE” (NOVARTIS AG, priority 2019, published 2022).
